This is an account of results in ChEMBL document CHEMBL5230094, “Structure-activity relationships of Wee1 inhibitors: A review” (Eur J Med Chem, 2020).

The target in assay [1] is Proto-oncogene tyrosine-protein kinase Src (Homo sapiens, UniProt P12931). As to the kind of experiment: Inhibition of c-Src (unknown origin).
The target of assay [2] is T1, Wee1-like protein kinase (Homo sapiens, UniProt P30291). As to the kind of experiment: Binding affinity to Wee1 (unknown origin) assessed as dissociation constant.
Assay [3] deals with T1, Wee1-like protein kinase. Description: Inhibition of recombinant Wee1 (unknown origin) incubated for 1 hr by TR-FRET assay. A general note: TR-FRET usually uses a lanthanide donor and a delayed reading to cut background.
Assay [4] deals with T1, Wee1-like protein kinase. As to the kind of experiment: Inhibition of human full length N-terminal GST tagged Wee1 expressed in E coli.
Another assay has as its system A549. As to the kind of experiment: Antiproliferative activity against human A549 cells by MTS based Cell Titer 96 viability assay. The class given is functional.
For assay [5], the target named is T1, Wee1-like protein kinase. Description: Inhibition of recombinant Wee1 (unknown origin) by TR-FRET assay.
Another assay relates to MDA-MB-231. As to the kind of experiment: Antiproliferative activity against human MDA-MB-231 cells.
For assay [6], the target named is T2, Serine/threonine-protein kinase Chk1 (Homo sapiens, UniProt O14757).
T2 sequence (O14757 whole entry): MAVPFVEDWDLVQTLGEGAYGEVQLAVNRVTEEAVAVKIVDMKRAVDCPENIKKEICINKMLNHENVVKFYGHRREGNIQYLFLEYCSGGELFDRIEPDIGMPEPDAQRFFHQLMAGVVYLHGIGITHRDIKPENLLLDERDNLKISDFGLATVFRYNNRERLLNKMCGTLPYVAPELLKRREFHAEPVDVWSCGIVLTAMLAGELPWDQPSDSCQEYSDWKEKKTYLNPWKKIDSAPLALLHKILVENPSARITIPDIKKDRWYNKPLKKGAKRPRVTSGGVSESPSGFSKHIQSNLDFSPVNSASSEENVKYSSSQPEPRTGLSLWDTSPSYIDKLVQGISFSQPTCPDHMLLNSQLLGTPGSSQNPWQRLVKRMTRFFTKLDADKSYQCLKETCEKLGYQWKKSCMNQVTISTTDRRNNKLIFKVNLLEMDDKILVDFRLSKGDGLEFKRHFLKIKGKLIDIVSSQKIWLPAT
Description: Inhibition of CHK1 (unknown origin).

T1 sequence (P30291 whole entry): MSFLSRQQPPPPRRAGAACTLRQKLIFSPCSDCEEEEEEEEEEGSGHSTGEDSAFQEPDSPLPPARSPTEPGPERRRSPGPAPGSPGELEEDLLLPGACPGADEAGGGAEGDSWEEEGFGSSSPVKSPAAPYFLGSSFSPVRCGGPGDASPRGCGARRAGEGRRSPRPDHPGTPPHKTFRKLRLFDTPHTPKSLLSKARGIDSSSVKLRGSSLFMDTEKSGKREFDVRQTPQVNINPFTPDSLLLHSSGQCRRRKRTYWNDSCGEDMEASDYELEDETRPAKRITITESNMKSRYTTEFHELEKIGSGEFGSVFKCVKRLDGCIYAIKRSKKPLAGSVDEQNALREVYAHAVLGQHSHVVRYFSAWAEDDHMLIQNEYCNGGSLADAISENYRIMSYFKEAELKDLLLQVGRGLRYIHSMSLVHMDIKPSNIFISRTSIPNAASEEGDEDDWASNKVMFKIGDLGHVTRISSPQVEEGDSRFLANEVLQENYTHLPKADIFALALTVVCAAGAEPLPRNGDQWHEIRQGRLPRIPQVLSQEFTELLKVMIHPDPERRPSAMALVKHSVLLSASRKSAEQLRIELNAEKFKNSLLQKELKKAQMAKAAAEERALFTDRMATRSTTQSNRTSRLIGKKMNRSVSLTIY
Sequence of Proto-oncogene tyrosine-protein kinase Src (P12931 2-536 limits assumed): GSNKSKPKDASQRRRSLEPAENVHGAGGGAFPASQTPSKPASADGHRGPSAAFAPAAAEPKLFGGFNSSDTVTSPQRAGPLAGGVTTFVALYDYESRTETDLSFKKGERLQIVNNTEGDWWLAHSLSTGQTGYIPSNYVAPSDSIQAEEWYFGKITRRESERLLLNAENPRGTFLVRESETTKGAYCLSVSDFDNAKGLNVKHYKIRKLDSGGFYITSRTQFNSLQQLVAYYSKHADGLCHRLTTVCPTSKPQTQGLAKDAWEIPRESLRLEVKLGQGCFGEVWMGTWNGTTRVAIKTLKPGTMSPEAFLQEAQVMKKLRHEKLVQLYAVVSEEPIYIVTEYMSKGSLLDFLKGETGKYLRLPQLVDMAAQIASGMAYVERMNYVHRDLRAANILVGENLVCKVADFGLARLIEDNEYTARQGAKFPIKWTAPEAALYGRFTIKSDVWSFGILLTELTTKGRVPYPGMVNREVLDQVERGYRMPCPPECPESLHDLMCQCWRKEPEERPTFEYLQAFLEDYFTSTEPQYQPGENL

In the case of `Cn1c(=O)c(-c2c(Cl)cccc2Cl)cc2cnc(Nc3ccc(CC(N)=O)cc3)nc21`, in assay [1], the half-inhibitory concentration (IC50) (in general, the concentration needed to halve the response being measured) turned out to be 13 nM. `CC(=O)NCC(=O)N1[C@@H]2CC[C@H]1c1cc(Nc3ncc(C(F)(F)F)c(NC4CCC4)n3)ccc12`: the Kd (in general, the concentration at which binding is half-saturated) on Wee1-like protein kinase [2] worked out at 78.7 nM. Compound `Cc1cccc(C)c1-c1cc2cnc(Nc3ccccc3)nc2n(C)c1=O` returned an IC50 in assay [1] of 14 nM. Same read-out and setting: next, `Cn1c(=O)c(-c2c(Cl)cccc2Cl)cc2cnc(Nc3ccc(OCCCC(=O)O)cc3)nc21`: 4 nM; `CCN(CC)CCOc1ccc(Nc2ncc3c(C)c(-c4c(C)cccc4C)c(=O)n(C)c3n2)cc1`: 360 nM. Same read-out and setting: next, `Cn1c(=O)c(-c2c(Cl)ccc(O)c2Cl)cc2cnc(Nc3ccc(OCCCC(=O)O)cc3)nc21`: 99 nM. As for `C=CCn1c(=O)c2cnc(Nc3ccc(N4CCN(C(=O)OC)CC4)cc3)nc2n1-c1cccc(C(C)(C)O)n1`, the IC50 on Wee1-like protein kinase [3] is 27.8 nM. The compound `CCN(CC)CCOc1ccc(Nc2ncc3cc(-c4c(C)cccc4C)c(=O)n(C)c3n2)cc1` registered a half-inhibitory concentration (IC50) in assay [1] of 23 nM. As to `CCOC(=O)N1CCc2c(sc3nc(SCC(=O)c4ccccc4)n(N)c(=O)c23)C1`, the IC50 at Wee1-like protein kinase [4] worked out at 22300 nM; in the assay with A549 it was 17800 nM. Regarding `C=CCn1c(=O)c2cnc(Nc3ccc(CCN(C)C)cc3)nc2n1-c1cccc(C(C)(C)O)n1`, at Wee1-like protein kinase [5], the IC50 amounted to 1.7 nM.

`CCN(CC)CCOc1ccc(Nc2ncc3c(C)c(-c4ccccc4Cl)c(=O)n(C)c3n2)cc1` came in with an IC50 in assay [1] above 50000 nM. The compound `COc1cc(Nc2c(C#N)cnc3cc(OCCCN4CCN(C)CC4)c(OC)cc23)c(Cl)cc1Cl` [BOSUTINIB] yielded an IC50 in the assay with MDA-MB-231 of 1800 nM. As to `CCN(CC)CCOc1ccc(Nc2ncc3cc(-c4c(Cl)cccc4Cl)c(=O)n(C)c3n2)cc1` [PD-0166285], the IC50 in assay [6] was determined as 72 nM.
